Data on two compounds can be found in ChEMBL document CHEMBL3879886, “Substantially pure 2-{[2-(2-Methylamino-Pyrimidin-4-YL)-1H-Indole-5-Carbonyl]-Amino}-3-Phenylpyridin-2-YL-Amino)-Propionic acid as an IkB kinase inhibitor” (2007).

One data set deals with Mus musculus. The data set is described as follows: In vivo inhibition of IKK2 in Balb/c mouse assessed as decrease in IL-1beta-induced NF-kappaB activation administered intranasally 0.5 to 1 hr prior to IL-1beta challenge measured after 1 to 24 hrs by luciferase reporter gene assay. It is filed as functional.
The nature of data set [1]: Drug uptake in Hartley guinea pig lung at 0.01 to 0.3 mg/kg administered via intra-tracheal instillation measured after 1 hr. The data set is classed as ADME, organism-based, Cavia porcellus. Particulars: in vivo, inhaled_or_intranasal; call rule not given here.
The nature of data set [2]: Drug uptake in Hartley guinea pig plasma at 0.01 to 0.3 mg/kg administered via intra-tracheal instillation measured after 1 hr. The settings on record: in vivo, inhaled_or_intranasal. It is filed as ADME, organism-based, Cavia porcellus.
A short description of data set [3]: Drug uptake in po dosed Hartley guinea pig plasma. The data set is classed as ADME, organism-based, Cavia porcellus. Particulars: in vivo.
A short description of data set [4]: Prodrug conversion in Hartley guinea pig lung assessed as formation of 2-{[2-(2-Methylamino-pyrimidin-4-yl)-lH-indole-5-carbo- nyl]-amino}-3-(phenyl-pyridin-2-yl-amino)-propionic acid at 0.01 to 0.3 administered via intra-tracheal instillation measured after 1 hr. The data set is classed as ADME, Cavia porcellus. The settings on record: in vivo, inhaled_or_intranasal.

A short description of data set [5]: Drug uptake in Hartley guinea pig lung at 0.3 mg/kg administered via intra-tracheal instillation measured after 1 hr. It is filed as ADME, organism-based, Cavia porcellus. Particulars: in vivo, inhaled_or_intranasal.

As for `CNc1nccc(-c2cc3cc(C(=O)N[C@@H](CN(c4ccccc4)c4ccccn4)C(=O)O)ccc3[nH]2)n1`, the inhibition entry in the data set on Mus musculus is “Dose-dependent effect”. Further, the Drug uptake entry in data set [1], in data set [2] and in data set [3] was “Active” in each case.

For `CNc1nccc(-c2cc3cc(C(=O)N[C@@H](CN(c4ccccc4)c4ccccn4)C(=O)NOC)ccc3[nH]2)n1`, in the data set on Mus musculus, the inhibition entry is “Dose-dependent effect”. Further, in data set [4], the Drug metabolism entry is reported as “Metabolite_Detected”. For the same compound, the Drug uptake result in data set [2], in data set [3] and in data set [5] was “Active” throughout.
